The source of these data is patent US20260174823A1 (The Children's Medical Center Corporation, priority 2022, published 2026).

Entries after “also recorded” stand apart in the source; their conditions may differ.

The subject of series [1] is murine model for endometriosis pain. In words: endometriosis-associated pain overall (von Frey plus spontaneous pain behaviors) in mouse model. The class given is in vivo. The following applies: vs vehicle. The procedure: (§1) After at least one week of acclimatization, donor mice received a subcutaneous injection of 3 μg/mouse estradiol benzoate to stimulate the growth of the endometrium. Seven days later, the uteri of the donor mice were dissected into a Petri dish containing HBSS and split longitudinally with a pair of scissors. Uterine horns from each donor mouse were minced with scissors and scalpel one at the time, ensuring that the maximal diameter of each fragment was consistently smaller than 1 millimeter (mm). Each dissociated uterine horn was then injected intraperitoneally using an 18 G needle into a recipient mouse in 500 μL of HBSS. One donor mouse was used for every two endometriosis mice.
(§2) For mechanical and heat hyperalgesia tests, mice were allowed to habituate to the apparatus for at least 2 hours and during three consecutive days before the beginning of measurements. […] Pain intensity to a mechanical stimulus (mechanical hyperalgesia) in the abdominal region was measured using von Frey filaments. […] The mechanical threshold was determined by the up and down method starting with 0.4 g filament and calculated using the open-source software Up-Down Reader.
For spontaneous abdominal pain measurements, stretching the abdomen (abdominal contortions) and squashing of the lower abdomen against the floor were quantified. […]

Another series relates to endometriosis lesions. Put plainly: endometriosis lesion size measured with calipers in mouse model. The series is classed as in vivo.
The subject of series [2] is murine model for endometriosis pain. In words: von Frey testing of abdominal mechanical pain in non-surgical mouse model of endometriosis. The series is classed as in vivo. As for the experimental part:
as §1, §2
It was therefore tested whether Rimegepant is effective at reducing pain in a murine model (FIG. 1A). […] Lesion size was calculated from the mean of two measurements (width and height in mm). […]

Series [3] shares this test system. In words: spontaneous pain quantification (abdominal squashing and contortions) in mouse model of endometriosis. The series is classed as in vivo. As for the experimental part:
as §1
For spontaneous abdominal pain measurements, stretching the abdomen (abdominal contortions) and squashing of the lower abdomen against the floor were quantified. Briefly, for the abdominal contortions, mice were placed in individual chambers in a temperature-controlled (29° C.) glass plate and the number of abdominal contortions was quantified for 10 minutes.
Positive responses consist of a contraction of the abdominal muscle together with stretching of hind limbs. For abdominal squashing, the number of times the mice pressed the lower abdominal region against the floor in five minutes was quantified.
It was therefore tested whether Rimegepant is effective at reducing pain in a murine model (FIG. 1A). Endometriosis lesions were induced in 40 mice and at day 29 post-induction, mice were randomly assigned to treatment with vehicle or Rimegepant at 3, 10, or 30 mg/kg (n=10 mice per group). Treatment was performed daily by oral gavage. Mechanical abdominal pain was determined weekly, 7 to 42 days post implantation (dpi) using von Frey filaments, while abdominal squashing and contortions were determined by counting these pain behaviors. Lesion size was calculated from the mean of two measurements (width and height in mm). […]

For series [4] the test system is unchanged. Put plainly: endometriosis-associated pain overall (von Frey plus spontaneous pain behaviors) in mouse model. The class given is in vivo. The following applies: 29 to 56 dpi, vs vehicle.
The conditions of series [5]: cited from earlier work.
Series [6] concerns mouse endometrial epithelial cells (mEECs). Put plainly: mEEC proliferation assay in transwell co-culture with peritoneal macrophages (CyQuant). The class given is cell-based. The following applies: Rimegepant 100 nM 30 minutes before CGRP 100 nM for 24 hours.
Description: Peritoneal cells were collected in FACS buffer from the abdominal cavity of naïve mice. Peritoneal cavity immune cells were seeded in petri dishes in RPMI media and incubated at 37° C. in 5% CO2 for 60 minutes. Non-adherent cells were discarded, and adherent cells (macrophages) were scraped, centrifuged, and counted.
For experiments involving mouse epithelial endometrial cell (mEEC) proliferation, macrophages were plated (100,000 cells per well) onto tissue culture insert and left overnight with 20,000 mEEC plated on the bottom of the well. Stimulus with CGRP (100 nM) or vehicle was performed for 24 hours and then mEEC were used to determine for cell proliferation assay using CyQuant™ kit (Thermo Fisher Scientific #C7026). Treatment with Rimegepant (100 nM) or vehicle was performed 30 minutes before stimulus with CGRP.
In this experiment, peritoneal macrophages were plated on a cell culture insert and co-cultured with a mouse epithelial endometrial cell line (mEEC) in a 24-well plate. Cell growth was assessed using the CyQuant™ kit and quantification performed in a spectrophotometer (n=8 well per group).
Macrophages were plated onto tissue culture insert with mEEC plated on the bottom of the well. […] Results shown are expressed as mean±SEM, n=5−12 (one-way ANOVA followed by Tukey's post hoc or Student's t-test, ****P<0.0001, p<0.001, **p<0.02, *p<0.05).
The next series concerns peritoneal macrophages. In words: efferocytosis assay: peritoneal macrophages with apoptotic 12z-eGFP cells. The series is classed as cell-based, mouse. The following applies: Rimegepant 100 nM 30 minutes before CGRP 100 nM for 24 hours; apoptotic 12z-eGFP added for 1 hour.
The mark [7] stands for this setting: nociceptor ablation in RTX-treated lesion-bearing mice.
Where [8] appears, read: Rimegepant 3, 10 or 30 mg/kg daily by oral gavage, 29 to 42 dpi, vs vehicle.

Turning to `CC[N+](CC)(CC)CC(=O)Nc1c(C)cccc1C` [QX-314], in series [1] (QX-314 0.1 or 1 mg/kg daily i.p., 29 to 35 dpi), the endometriosis-associated pain result is recorded as “reduced endometriosis-associated pain; also recorded: reduces”. In addition, the lesion size entry in the series on endometriosis lesions (QX-314 0.1 or 1 mg/kg daily i.p., 29 to 35 dpi, vs vehicle) is listed as “reduced lesion size; also recorded: reduces”.
Take `C=C(C)[C@]12C[C@@H](C)[C@@]34O[C@](Cc5ccccc5)(O[C@@H]1[C@@H]3C=C(COC(=O)Cc1ccc(O)c(OC)c1)C[C@]1(O)C(=O)C(C)=C[C@@H]41)O2` [RTX, resiniferatoxin toxin]: the evoked pain entry in series [2] (setting [7]) is listed as “reduced”. Besides, in series [3] (setting [7]), the spontaneous pain behaviors entry is listed as “reduced”. In the series with endometriosis lesions (setting [7]), the lesion size entry is on record as “reduced”.
With `C[C@@H]1[C@H](c2ccccc2)C[C@H](NC(=O)c2cnc3c(c2)C[C@@]2(C3)C(=O)Nc3ncccc32)C(=O)N1CC(F)(F)F` [Ubrogepant], the lesion size result was “significantly smaller” in the series with endometriosis lesions (Ubrogepant 50 mg/kg daily per oral gavage, 29 to 56 dpi, vs vehicle) and “reduce” in the series with endometriosis lesions (Ubrogepant 50 mg/kg daily per oral gavage, 29 to 56 dpi, vs vehicle, listed as Ubrogevant). The endometriosis-associated pain entry is recorded as “significant reduction” in series [4] (Ubrogepant 50 mg/kg daily per oral gavage) and “reduce” in series [4] (Ubrogepant 50 mg/kg daily per oral gavage, listed as Ubrogevant).
Take `N[C@@H]1c2cccnc2[C@H](OC(=O)N2CCC(n3c(=O)[nH]c4ncccc43)CC2)CC[C@H]1c1cccc(F)c1F` [Rimegepant]: in series [1] (Rimegepant 3, 10 or 30 mg/kg daily by oral gavage, 29 to 42 dpi), the endometriosis-associated pain entry is listed as “reduces endometriosis-associated pain”. In addition, in series [2] (setting [8]), the “abdominal mechanical threshold to the von Frey fibers” value is listed as “increased”. The “preclinical safety profile upon chronic treatment” value in series [5] (chronic treatment (26 weeks)) was “safe preclinical profile”. Moreover, the “adverse effects on fertility” value in series [5] (doses as high as 60 mg/kg) is “no adverse effects on fertility”. Moreover, in series [3] (setting [8]), the “number of abdominal contortion” value is “reduced” and the “number of abdominal squashing” value is “reduced”. In addition, in series [6], the “growth (proliferation) of mEEC promoted by CGRP-stimulated macrophages” value is reported as “inhibited; also recorded: reduces mEEC proliferation”. Besides, the lesion size entry in the series with endometriosis lesions (setting [8]) was “reduced lesion size; also recorded: reduces”. Moreover, the “efferocytosis activity of CGRP-stimulated macrophages (eGFP fluorescence intensity)” value in the series with peritoneal macrophages is “rescued; also recorded: restores normal levels of efferocytosis”.

B1: Galcanezumab (antibody, chains of the INN, looked up, V domains shown)
VH: QVQLVQSGAEVKKPGSSVKVSCKASGYTFGNYWMQWVRQAPGQGLEWMGAIYEGTGKTVYIQKFADRVTITADKSTSTAYMELSSLRSEDTAVYYCARLSDYVSGFGYWGQGTTVTVSS
VL: DIQMTQSPSSLSASVGDRVTITCRASKDISKYLNWYQQKPGKAPKLLIYYTSGYHSGVPSRFSGSGSGTDFTLTISSLQPEDFATYYCQQGDALPPTFGGGTKVEIK
notes: a second monoclonal antibody antagonist of CGRP
Regarding B1, the lesion size entry in the series with endometriosis lesions (Galcanezumab 4 mg/kg subcutaneous injection, 29 to 56 dpi, vs vehicle) was “reduce”. Besides, in series [4] (Galcanezumab 4 mg/kg subcutaneous injection), the endometriosis-associated pain result is reported as “significant reduction; also recorded: reduce”.

B2: Fremanezumab (antibody, chains of the INN, looked up, V domains shown)
VH: EVQLVESGGGLVQPGGSLRLSCAASGFTFSNYWISWVRQAPGKGLEWVAEIRSESDASATHYAEAVKGRFTISRDNAKNSLYLQMNSLRAEDTAVYYCLAYFDYGLAIQNYWGQGTLVTVSS
VL: EIVLTQSPATLSLSPGERATLSCKASKRVTTYVSWYQQKPGQAPRLLIYGASNRYLGIPARFSGSGSGTDFTLTISSLEPEDFAVYYCSQSYNYPYTFGQGTKLEIK
notes: a monoclonal antibody antagonist of CGRP
Regarding B2, in the series with endometriosis lesions (Fremanezumab 100 mg/kg subcutaneous injection, 29 to 56 dpi, vs vehicle), the lesion size entry is recorded as “significantly smaller; also recorded: reduce”. In addition, the endometriosis-associated pain result in series [4] (Fremanezumab 100 mg/kg subcutaneous injection) is “significant reduction; also recorded: reduce”.
